Source: patent publication US20240238310A1, “MODULATION OF SEX STEROID HORMONE PRODUCTION AND ACTIVITY FOR TREATING AND PREVENTING HERNIAS” (Northwestern University, priority 2020, published 2024)

Target: T1, ERα (Mus musculus, UniProt P19785)
T1 construct: ERα in LAMT is almost exclusively expressed in fibroblasts; endogenous in cells; host or cells: primary LAMT fibrosis-associated fibroblasts (passage 0) from 4-week-old Arom^hum (FVB/N background) male mice
T1 sequence (P19785 1-599): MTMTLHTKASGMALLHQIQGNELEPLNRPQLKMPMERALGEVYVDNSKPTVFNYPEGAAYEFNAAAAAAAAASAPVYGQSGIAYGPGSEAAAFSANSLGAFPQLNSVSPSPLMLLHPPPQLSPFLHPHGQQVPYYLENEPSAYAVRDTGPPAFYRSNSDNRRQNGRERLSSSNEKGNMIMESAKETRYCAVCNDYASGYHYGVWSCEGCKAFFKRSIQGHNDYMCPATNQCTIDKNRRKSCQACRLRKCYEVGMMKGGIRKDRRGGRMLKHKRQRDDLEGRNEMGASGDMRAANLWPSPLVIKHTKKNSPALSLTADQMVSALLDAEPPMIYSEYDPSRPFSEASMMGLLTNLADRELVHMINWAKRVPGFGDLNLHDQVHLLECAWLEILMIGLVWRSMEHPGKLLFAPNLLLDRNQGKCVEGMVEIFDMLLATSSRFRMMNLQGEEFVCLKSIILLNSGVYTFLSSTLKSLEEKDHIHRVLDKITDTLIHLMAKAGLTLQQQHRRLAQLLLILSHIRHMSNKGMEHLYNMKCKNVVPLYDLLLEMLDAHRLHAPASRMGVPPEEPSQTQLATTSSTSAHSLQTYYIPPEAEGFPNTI
Assay: ERα ChIP-seq, histone ChIP-seq and RNA-seq in LAMT FAFs treated with E2 or fulvestrant (planned)
Type: cell-based
Conditions: expected result (Aim 1); fulvestrant 10^−7 M, 24 h
Description: Early herniation in Arom^hum mice usually become visible around 4 weeks of age (FIG. 5). Thus, we will isolate LAMT transformed FAFs at 4 weeks of age. We routinely culture primary fibroblast cells from LAMT of both WT and Arom^hum mice (FIGS. 6-9). The quantity of FAFs (>10^7 cells/Arom^hum mouse) is sufficient for performing the proposed experiments. Previously, we successfully used two antibodies for ERα ChIP-seq or other genome-wide ChIP approaches^84, 85. We will perform optimization studies (ChIP-western and conventional ChIP) with both antibodies in primary muscle fibroblasts and use the most suitable antibody for ChIP-seq^84. […] Library quality will be assessed using the Agilent 2100 Bioanalyzer. Sequencing will be performed at the Next-Generation Sequencing Core at Northwestern to obtain 30 million single-end 75-bp reads per sample. […]
Experiment 1b2: We will perform RNA-seq at 40 million reads per sample on the 12 LAMT FAF samples treated for 24 h with vehicle, E2 (10^−8M), or fulvestrant (10^-7 M) (n=4 mice/group). […] The RNA-seq data will be evaluated using pathway analysis and gene enrichment strategies with respect to the differentially expressed (DE) transcripts/genes induced by E2 and reversed by fulvestrant.
Bioinformatics analysis for ChIP-seq, RNA-seq, and their integration. […] The differential binding (DB) sites will be detected using csaw^89. […]

**Q.** How did the “E2-induced ERα binding, histone modification and gene expression profiles in LAMT FAFs” value turn out when `C[C@]12CC[C@@H]3c4ccc(O)cc4C[C@@H](CCCCCCCCC[S+]([O-])CCCC(F)(F)C(F)(F)F)[C@H]3[C@@H]1CC[C@@H]2O` (stereo partly shown) [fulvestrant] was run?
**A.** will block or partially reverse E2-induced ERα binding and histone modification, and alter gene expression profiles
